Tests used:
[1] = X-Ray Powder Diffraction (XRPD) of solid form pre/post lyophilization; type: physicochemical; conditions: crystalline powder before lyophilization
[2] = Text: 1. […] 2. […] 3. […] 4. […] 5. […] 6. […] 7. […] 8. […] 9. […] 10.

Row | Compound | solid form after the lyophilization process (XRPD) [1] | solubility improvement [2]
1 | O=C(O)c1cn(C2CC2)c2cc(N3CCNCC3)c(F)cc2c1=O [Ciprofloxacin] | semi-crystalline forms | 
2 | CN1CCN(c2cc3c(cc2F)c(=O)c(C(=O)O)cn3-c2ccc(F)cc2)CC1 [Difloxacin] | amorphous form | 3-4 ×
3 | Fc1ccc([C@@H]2CCNC[C@H]2COc2ccc3c(c2)OCO3)cc1 [Paroxetine] | amorphous form | 3-4 ×
